Values of other authors, collected in patent US11214548B2, “Cannabinoid receptor modulators” (priority 2009, dated 2022).

How the values were obtained:
acute and chronic pain = details: animal studies; cited from earlier work
capsaicin-induced coughs = details: guinea pigs; cited from earlier work

CCCCC/C=C\C/C=C\C/C=C\C/C=C\CCCC(=O)NCCO [anandamide]
effect against acute and chronic pain from chemical, mechanical, and thermal pain stimuli (acute and chronic pain): effective
number of capsaicin-induced coughs (capsaicin-induced coughs): dose-dependent inhibition
